# Test results as given in US8629132B2, “Kinase inhibitors” (Genosco, priority 2009, dated 2014).
# What was measured:
# PYK2 = target: T1, PYK2 (Homo sapiens, UniProt Q14289); experiment: Kinase inhibition assay: PYK2; assay type: biochemical; conditions: at 1 μM concentration
# T1 construct: Purified full-length human SYK, ZAP70, PIM1, PYK2; purchased Carna Biosciences
# Procedure: Compounds of the present invention were tested for their capacity to inhibit a kinase panel which includes, but are not limited to, spleen tyrosine kinase (SYK), zeta-chain-associated protein kinase 70 (ZAP70), PTK2B protein tyrosine kinase 2 (PYK2), focal adhesion kinase (FAK), provirus integration of maloney kinase 1 (PIM1), rearranged during transfection kinase (RET), Fms-like tyrosine kinase 3 (FLT3), Janus kinase 2 (JAK2), and leucine-rich repeat kinase 2 (LRRK2).
# Inhibition of SYK, ZAP70, PYK2, FAK, PIM1, RET, FLT3, JAK2 and LRRK2 Kinase Activity
# Compounds of the invention were initially diluted to 10 mM in 100% DMSO (CALBIOCHEM™) for storage and made into kinase buffer solution to create a compound concentration ranging from 1 uM and 10 uM. Serial dilutions of compounds of the invention were dispensed into a 96-well plate (GREINER BIOSCIENCES™) at 6 μL each. Purified full-length human SYK, ZAP70, PIM1, PYK2 and truncated human FAK, RET, FLT3, JAK2, and LRRK2 (CARNA BIOSCIENCES™) were diluted in kinase buffer and added to the compound solutions and pre-incubated for 30 minutes at room temperature (1 hour for PYK2). […] The reaction mixture was incubated for 1 hour (2 hours for PYK2). Following the incubation, the stop solution made with EDTA, water, and Lance detection buffer ([…]™) was added (12μL each) to stop phosphorylation. […] The IC50 value of test compound was calculated at Gradpad Prism 5 unless specified otherwise.
# SYK = target: T2, SYK (Homo sapiens, UniProt P43405); experiment: In vitro kinase inhibition profile (Ambit Biosciences); assay type: binding; conditions: reported as percent control, lower numbers indicate stronger activities
# T2 construct: Purified full-length human SYK, ZAP70, PIM1, PYK2; purchased Carna Biosciences
# Procedure: (§1) Up to 518 different kinases have been identified in humans. To determine the scope of inhibitory effects of a representative compound of Formula (I) on known kinases, Compound 82 was tested against 104 commercially available kinases (Ambit Biosciences™). 104 kinases included ABL1(E255K)-phosphorylated, ABL1(T315I)-phosphorylated, ABL1-phosphorylated, ACVR1B, ADCK3, AKT1, AKT2, ALK, AURKA, AURKB, AXL, BMPR2, BRAF, BRAF(V600E), BTK, CDK11, CDK2, CDK3, CDK7, CDK9, CHEK1, CSF1R, CSNK1D, CSNK1G2, DCAMKL1, DYRK1B, EGFR, EGFR(L858R), EPHA2, ERBB2, ERBB4, ERK1, FAK, FGFR2, FGFR3, FLT1, FLT3, FLT4, GSK3B, IGF1R, IKK-α, IKK-β, INSR, JAK2(JH1domain-catalytic), JAK3 (JH1 domain-catalytic), JNK 1, JNK2, JNK3, KIT, KIT(D816V), KIT(V559D,T6701), LKB1, LRRK2, LRRK2(G2019S), MAP3K4, MAPKAPK2, MARKS, MEK1, MEK2, MET, MKNK1, MKNK2, MLK1, MTOR, p38-alpha, p38-beta, PAK1, PAK2, PAK-4, PCTK1, PDGFRA, PDGFRB, PDPK1, PIK3C2B, PIK3CA, PIK3CG, PIM1, PIM2, PIM3, PKAC-alpha, PLK1, PLK3, PLK4, PRKCE, PYK2, RAF1, RET, R10K2, ROCK2, RSK2, SNARK, SRC, SRPK3, SYK, TAK1, TGFBR1, TIE2, TRKA, TSSK1B, TYK2(JH1domain-catalytic), ULK2, VEGFR2, YANK3 and ZAP70.
# (§2) Inhibition activity of Compound 82 was reported as percent control where lower numbers indicate stronger activities.
# RET = target: T3, RET (Homo sapiens, UniProt P07949); experiment: as above; assay type: binding; conditions: reported as percent control, lower numbers indicate stronger activities
# T3 construct: purchased Ambit Biosciences
# Procedure: as §1, §2
# TAK1 = target: T4, TAK1 (Homo sapiens, UniProt O43318); experiment: as above; assay type: binding; conditions: reported as percent control, lower numbers indicate stronger activities
# T4 construct: purchased Ambit Biosciences
# Procedure: as §1, §2
# SNARK = target: T5, SNARK (Homo sapiens, UniProt Q9H093); experiment: as above; assay type: binding; conditions: reported as percent control, lower numbers indicate stronger activities
# T5 construct: purchased Ambit Biosciences
# Procedure: as §1, §2
# MLK1 = target: T6, MLK1 (Homo sapiens, UniProt P80192); experiment: as above; assay type: binding; conditions: reported as percent control, lower numbers indicate stronger activities
# T6 construct: purchased Ambit Biosciences
# Procedure: as §1, §2
# AURKB = target: T7, AURKB (Homo sapiens, UniProt Q96GD4); experiment: as above; assay type: binding; conditions: reported as percent control, lower numbers indicate stronger activities
# T7 construct: purchased Ambit Biosciences
# Procedure: as §1, §2
# TYK2 = target: T8, TYK2 (Homo sapiens, UniProt P29597); experiment: as above; assay type: binding; conditions: reported as percent control, lower numbers indicate stronger activities
# T8 construct: TYK2(JH1domain-catalytic); purchased Ambit Biosciences
# Procedure: as §1, §2
# SRPK3 = target: T9, SRPK3 (Homo sapiens, UniProt Q9UPE1); experiment: as above; assay type: binding; conditions: reported as percent control, lower numbers indicate stronger activities
# T9 construct: purchased Ambit Biosciences
# Procedure: as §1, §2
# MKNK2 = target: T10, MKNK2 (Homo sapiens, UniProt Q9HBH9); experiment: as above; assay type: binding; conditions: reported as percent control, lower numbers indicate stronger activities
# T10 construct: purchased Ambit Biosciences
# Procedure: as §1, §2
# ZAP70 = target: T11, ZAP70 (Homo sapiens, UniProt P43403); experiment: as above; assay type: binding; conditions: reported as percent control, lower numbers indicate stronger activities
# T11 construct: Purified full-length human SYK, ZAP70, PIM1, PYK2; purchased Carna Biosciences
# T11 sequence (P43403 1-619): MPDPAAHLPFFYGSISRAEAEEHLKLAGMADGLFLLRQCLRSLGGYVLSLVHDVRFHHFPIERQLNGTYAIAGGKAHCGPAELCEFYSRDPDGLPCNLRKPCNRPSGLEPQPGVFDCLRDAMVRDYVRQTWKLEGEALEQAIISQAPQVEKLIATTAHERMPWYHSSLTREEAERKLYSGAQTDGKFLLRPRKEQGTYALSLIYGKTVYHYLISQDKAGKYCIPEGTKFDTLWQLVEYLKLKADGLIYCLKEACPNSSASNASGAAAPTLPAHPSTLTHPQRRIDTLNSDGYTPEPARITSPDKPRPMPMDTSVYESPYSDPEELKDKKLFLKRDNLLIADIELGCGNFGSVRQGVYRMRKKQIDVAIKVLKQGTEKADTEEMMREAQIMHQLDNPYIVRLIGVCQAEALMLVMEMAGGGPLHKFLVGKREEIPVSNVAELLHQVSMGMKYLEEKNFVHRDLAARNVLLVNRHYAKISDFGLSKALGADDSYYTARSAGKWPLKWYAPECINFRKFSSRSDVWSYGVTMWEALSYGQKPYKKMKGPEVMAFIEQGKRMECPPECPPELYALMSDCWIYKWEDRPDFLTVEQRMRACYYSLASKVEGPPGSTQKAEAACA
# Procedure: as §1, §2
# PLK3 = target: T12, PLK3 (Homo sapiens, UniProt Q9H4B4); experiment: as above; assay type: binding; conditions: reported as percent control, lower numbers indicate stronger activities
# T12 construct: purchased Ambit Biosciences
# Procedure: as §1, §2
# AXL = target: T13, AXL (Homo sapiens, UniProt P30530); experiment: as above; assay type: binding; conditions: reported as percent control, lower numbers indicate stronger activities
# T13 construct: purchased Ambit Biosciences
# Procedure: as §1, §2
# FLT3 = target: T14, FLT3 (Homo sapiens, UniProt P36888); experiment: as above; assay type: binding; conditions: reported as percent control, lower numbers indicate stronger activities
# T14 construct: purchased Ambit Biosciences
# Procedure: as §1, §2
# T7 sequence (Q96GD4 whole entry): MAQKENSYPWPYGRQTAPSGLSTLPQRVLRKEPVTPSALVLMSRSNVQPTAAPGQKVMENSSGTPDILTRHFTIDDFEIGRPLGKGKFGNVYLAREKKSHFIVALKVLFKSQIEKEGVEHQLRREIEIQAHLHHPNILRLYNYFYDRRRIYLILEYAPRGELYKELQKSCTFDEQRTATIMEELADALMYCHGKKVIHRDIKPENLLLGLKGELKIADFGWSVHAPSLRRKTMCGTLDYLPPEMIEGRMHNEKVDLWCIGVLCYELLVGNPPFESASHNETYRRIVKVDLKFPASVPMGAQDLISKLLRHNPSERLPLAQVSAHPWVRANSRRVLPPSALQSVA
# T12 sequence (Q9H4B4 whole entry): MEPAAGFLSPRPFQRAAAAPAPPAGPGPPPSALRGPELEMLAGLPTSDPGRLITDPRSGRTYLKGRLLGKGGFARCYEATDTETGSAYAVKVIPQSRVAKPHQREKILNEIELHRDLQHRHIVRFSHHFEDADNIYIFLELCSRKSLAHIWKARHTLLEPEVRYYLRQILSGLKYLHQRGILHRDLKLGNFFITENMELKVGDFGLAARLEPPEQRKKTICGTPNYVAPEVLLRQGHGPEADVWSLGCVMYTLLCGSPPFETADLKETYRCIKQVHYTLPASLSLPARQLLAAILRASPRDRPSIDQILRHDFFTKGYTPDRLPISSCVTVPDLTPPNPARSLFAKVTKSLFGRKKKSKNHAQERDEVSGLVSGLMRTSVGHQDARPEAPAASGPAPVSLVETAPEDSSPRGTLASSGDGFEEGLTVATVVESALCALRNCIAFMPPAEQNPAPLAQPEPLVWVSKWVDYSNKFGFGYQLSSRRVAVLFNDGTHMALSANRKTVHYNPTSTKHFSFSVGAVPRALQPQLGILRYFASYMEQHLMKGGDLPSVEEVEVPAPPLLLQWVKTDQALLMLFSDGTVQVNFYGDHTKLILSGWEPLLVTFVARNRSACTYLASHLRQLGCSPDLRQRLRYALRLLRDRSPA
# T4 sequence (O43318 whole entry): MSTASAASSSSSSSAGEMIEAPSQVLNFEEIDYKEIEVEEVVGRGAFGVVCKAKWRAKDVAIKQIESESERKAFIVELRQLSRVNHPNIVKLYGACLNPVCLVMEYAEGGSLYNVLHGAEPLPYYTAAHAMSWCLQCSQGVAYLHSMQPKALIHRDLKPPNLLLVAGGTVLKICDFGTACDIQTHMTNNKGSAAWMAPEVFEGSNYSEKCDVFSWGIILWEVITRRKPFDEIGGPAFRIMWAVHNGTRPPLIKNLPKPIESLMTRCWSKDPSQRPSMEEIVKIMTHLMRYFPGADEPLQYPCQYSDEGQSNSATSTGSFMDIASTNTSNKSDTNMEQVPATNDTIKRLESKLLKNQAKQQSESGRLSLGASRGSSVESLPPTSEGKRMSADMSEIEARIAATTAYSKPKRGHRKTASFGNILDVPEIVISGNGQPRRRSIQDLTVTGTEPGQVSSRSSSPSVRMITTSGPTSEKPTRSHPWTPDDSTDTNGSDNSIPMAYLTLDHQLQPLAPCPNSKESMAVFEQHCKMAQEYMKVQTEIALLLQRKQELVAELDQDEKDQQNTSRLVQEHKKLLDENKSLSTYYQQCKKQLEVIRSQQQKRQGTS
# T3 sequence (P07949 29-1114): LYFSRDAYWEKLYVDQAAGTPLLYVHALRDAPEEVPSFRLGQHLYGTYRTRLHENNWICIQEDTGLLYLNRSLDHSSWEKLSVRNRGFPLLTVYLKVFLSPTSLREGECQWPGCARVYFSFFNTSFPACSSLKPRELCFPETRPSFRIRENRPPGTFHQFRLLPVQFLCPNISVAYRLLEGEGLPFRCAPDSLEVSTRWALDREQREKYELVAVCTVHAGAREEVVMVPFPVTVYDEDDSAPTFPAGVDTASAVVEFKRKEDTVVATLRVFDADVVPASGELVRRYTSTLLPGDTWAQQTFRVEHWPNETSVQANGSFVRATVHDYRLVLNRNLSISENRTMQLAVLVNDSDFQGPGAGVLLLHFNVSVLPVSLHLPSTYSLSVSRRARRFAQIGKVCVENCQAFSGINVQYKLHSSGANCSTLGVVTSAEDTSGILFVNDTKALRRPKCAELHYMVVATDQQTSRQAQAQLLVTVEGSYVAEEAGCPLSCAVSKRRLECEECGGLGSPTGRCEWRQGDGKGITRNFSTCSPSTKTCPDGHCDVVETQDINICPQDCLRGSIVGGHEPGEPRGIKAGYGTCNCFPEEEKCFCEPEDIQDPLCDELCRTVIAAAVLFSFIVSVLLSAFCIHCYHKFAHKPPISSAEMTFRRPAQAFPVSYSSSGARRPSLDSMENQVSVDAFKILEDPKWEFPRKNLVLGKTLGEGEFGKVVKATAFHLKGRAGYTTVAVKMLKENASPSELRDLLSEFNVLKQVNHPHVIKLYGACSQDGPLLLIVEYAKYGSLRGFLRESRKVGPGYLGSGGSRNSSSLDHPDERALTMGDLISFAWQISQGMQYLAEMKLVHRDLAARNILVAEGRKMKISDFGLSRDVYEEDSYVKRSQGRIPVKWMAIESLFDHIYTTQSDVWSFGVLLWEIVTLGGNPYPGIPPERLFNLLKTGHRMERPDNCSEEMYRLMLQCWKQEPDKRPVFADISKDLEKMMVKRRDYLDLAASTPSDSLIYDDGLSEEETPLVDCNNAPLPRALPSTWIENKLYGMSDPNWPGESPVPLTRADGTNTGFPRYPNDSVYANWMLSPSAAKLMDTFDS
# T6 sequence (P80192 whole entry): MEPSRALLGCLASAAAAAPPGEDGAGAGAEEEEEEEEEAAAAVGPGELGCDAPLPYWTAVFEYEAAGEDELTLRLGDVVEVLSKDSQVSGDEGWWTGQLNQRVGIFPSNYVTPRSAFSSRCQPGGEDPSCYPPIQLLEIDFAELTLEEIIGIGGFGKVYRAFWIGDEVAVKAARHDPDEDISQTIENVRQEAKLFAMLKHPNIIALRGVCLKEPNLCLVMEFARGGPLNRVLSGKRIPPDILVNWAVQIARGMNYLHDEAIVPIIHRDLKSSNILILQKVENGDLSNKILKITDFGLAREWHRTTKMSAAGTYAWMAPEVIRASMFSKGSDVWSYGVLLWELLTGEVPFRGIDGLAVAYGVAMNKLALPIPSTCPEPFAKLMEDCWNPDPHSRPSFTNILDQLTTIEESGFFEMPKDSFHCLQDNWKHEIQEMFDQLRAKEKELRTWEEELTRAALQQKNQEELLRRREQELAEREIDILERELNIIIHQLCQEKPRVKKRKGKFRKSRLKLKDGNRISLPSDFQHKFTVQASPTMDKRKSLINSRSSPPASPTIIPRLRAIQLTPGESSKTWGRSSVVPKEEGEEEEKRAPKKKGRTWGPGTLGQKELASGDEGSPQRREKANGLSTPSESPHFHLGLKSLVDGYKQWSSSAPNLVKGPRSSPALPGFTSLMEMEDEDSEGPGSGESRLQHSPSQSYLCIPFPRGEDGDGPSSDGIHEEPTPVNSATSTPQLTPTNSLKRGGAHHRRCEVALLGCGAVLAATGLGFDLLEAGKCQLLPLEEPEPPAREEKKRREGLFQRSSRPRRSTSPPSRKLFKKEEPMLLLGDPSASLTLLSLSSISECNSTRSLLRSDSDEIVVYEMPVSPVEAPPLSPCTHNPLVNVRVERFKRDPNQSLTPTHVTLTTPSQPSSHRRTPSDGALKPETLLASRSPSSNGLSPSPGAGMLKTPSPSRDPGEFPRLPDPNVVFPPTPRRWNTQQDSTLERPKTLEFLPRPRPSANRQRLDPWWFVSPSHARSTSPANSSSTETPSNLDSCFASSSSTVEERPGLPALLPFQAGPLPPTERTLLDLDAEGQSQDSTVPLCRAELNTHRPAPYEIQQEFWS
# T1 sequence (Q14289 whole entry): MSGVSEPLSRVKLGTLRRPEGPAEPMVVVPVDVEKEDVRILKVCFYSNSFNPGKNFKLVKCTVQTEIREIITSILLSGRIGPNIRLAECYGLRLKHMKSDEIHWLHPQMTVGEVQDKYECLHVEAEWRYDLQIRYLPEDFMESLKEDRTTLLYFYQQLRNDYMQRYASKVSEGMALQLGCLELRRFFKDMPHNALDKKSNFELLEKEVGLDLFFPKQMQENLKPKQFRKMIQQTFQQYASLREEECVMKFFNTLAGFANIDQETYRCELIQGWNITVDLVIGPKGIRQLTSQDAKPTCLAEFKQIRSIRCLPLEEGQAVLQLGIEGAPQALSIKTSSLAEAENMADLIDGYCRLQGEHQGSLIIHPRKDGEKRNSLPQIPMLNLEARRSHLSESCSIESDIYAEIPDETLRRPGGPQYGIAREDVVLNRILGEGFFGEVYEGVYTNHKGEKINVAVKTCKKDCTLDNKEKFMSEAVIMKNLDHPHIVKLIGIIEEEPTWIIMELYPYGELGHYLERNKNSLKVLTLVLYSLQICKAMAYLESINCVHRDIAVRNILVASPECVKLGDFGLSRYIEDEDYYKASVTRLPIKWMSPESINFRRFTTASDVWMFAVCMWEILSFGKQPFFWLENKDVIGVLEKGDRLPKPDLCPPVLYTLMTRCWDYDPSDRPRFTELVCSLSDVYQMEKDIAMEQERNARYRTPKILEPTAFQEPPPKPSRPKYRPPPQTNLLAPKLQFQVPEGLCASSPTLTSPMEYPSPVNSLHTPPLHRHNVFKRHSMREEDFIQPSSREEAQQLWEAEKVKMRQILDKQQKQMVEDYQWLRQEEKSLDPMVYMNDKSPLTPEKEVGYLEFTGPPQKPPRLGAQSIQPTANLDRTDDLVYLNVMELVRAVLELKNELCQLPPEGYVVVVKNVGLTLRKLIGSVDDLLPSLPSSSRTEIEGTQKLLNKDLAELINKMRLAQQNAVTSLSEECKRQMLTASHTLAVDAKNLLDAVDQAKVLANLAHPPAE
# T8 sequence (P29597 897-1176 limits assumed): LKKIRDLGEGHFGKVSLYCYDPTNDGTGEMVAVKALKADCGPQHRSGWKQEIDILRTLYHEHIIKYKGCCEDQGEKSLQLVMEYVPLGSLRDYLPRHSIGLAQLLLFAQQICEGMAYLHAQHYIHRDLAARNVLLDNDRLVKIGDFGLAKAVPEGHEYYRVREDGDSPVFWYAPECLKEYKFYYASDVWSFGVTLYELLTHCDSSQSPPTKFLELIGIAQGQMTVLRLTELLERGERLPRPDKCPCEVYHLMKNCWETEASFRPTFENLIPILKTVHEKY
inhibition at 1 µM (PYK2) [%],% of control SYK (SYK) [%],"RET binding, % of control (RET) [%]",% of control remaining TAK1 binding (TAK1) [%],% of control SNARK (SNARK) [%],% of control (MLK1) [%],% of control binding (AURKB) [%],% of control (TYK2) [%],% of control SRPK3 binding (SRPK3) [%],% of control binding MKNK2 (MKNK2) [%],% of control ZAP70 binding (lower = stronger) (ZAP70) [%],percent of control (lower = stronger binding) (PLK3) [%],% of control AXL (AXL) [%],% of control (FLT3) [%],Compound
78.2,–,–,–,–,–,–,–,–,–,–,–,–,–,"COc1cc(Nc2ncc(C)c(-n3cc(C)c(CO)c3)n2)cc(OC)c1OC [Compound 21, (4-methyl-1-(5-methyl-2-(3,4,5-trimethoxyphenylamino)pyrimidin-4-yl)-1H-pyrrol-3-yl)methanol]"
–,1,32,22,4.2,22,31,21,25,34,34,11,31,1.1,"Cc1cc(C)cc(Nc2ncc(F)c(-n3cc(C)c(CN4CC[C@@H](O)C4)c3)n2)c1 [Compound 82, (R)-1-((1-(2-(3,5-dimethylphenyl-amino)-5-fluoropyrimidin-4-yl)-4-methyl-1H-pyrrol-3-yl)methyl) pyrrolidin-3-ol]"
